Source: ChEMBL document CHEMBL3779788, “Facile synthesis of 1,3-thiazolidin-4-ones as antitubercular agents” (Bioorg Med Chem Lett, 2016)
Converted amounts (≈) assume the structure as drawn.

What was measured:
[1] = Cytotoxicity against human A549 cells at 10 ug/mL by MTT assay; type: cell-based; conditions: read-out: INH
[2] = Cytotoxicity against human HCT116 cells at 3 ug/mL by MTT assay; type: cell-based, HCT-116; conditions: read-out: INH
[3] = tested on: Mycobacterium tuberculosis; assay: Antitubercular activity against dormant Mycobacterium tuberculosis H37Ra by XTT reduction menadione assay; type: functional, organism-based
[4] = tested on: Mycobacterium bovis BCG str. ATCC 35743; assay: (§1) Antitubercular activity against dormant Mycobacterium bovis BCG ATCC 35743 by NR assay; type: functional
[5] = as §1; type: functional, Mycobacterium bovis BCG str. ATCC 35743
[6] = Cytotoxicity against human MCF7 cells at 10 ug/mL by MTT assay; type: cell-based; conditions: read-out: INH
[7] = tested on: Mycobacterium tuberculosis; assay: Antitubercular activity against dormant Mycobacterium tuberculosis H37Ra assessed as growth inhibition at 10 ug/mL by XTT reduction menadione assay; type: functional; conditions: read-out: GI
[8] = Cytotoxicity against human MCF7 cells at 3 ug/mL by MTT assay; type: cell-based; conditions: read-out: INH
[9] = Cytotoxicity against human A549 cells at 30 ug/mL by MTT assay; type: cell-based; conditions: read-out: INH
[10] = Cytotoxicity against human MCF7 cells at 30 ug/mL by MTT assay; type: cell-based; conditions: read-out: INH
[11] = Cytotoxicity against human A549 cells at 3 ug/mL by MTT assay; type: cell-based; conditions: read-out: INH
[12] = tested on: Mycobacterium bovis BCG str. ATCC 35743; assay: Antitubercular activity against dormant Mycobacterium bovis BCG ATCC 35743 assessed as growth inhibition at 10 ug/mL by NR assay; type: functional
[13] = Cytotoxicity against human HCT116 cells at 30 ug/mL by MTT assay; type: cell-based, HCT-116; conditions: read-out: INH
[14] = tested on: Mycobacterium bovis BCG str. ATCC 35743; assay: Antitubercular activity against dormant Mycobacterium bovis BCG ATCC 35743 assessed as growth inhibition at 30 ug/mL by NR assay; type: functional
[15] = tested on: Mycobacterium tuberculosis; assay: Antitubercular activity against dormant Mycobacterium tuberculosis H37Ra assessed as growth inhibition at 30 ug/mL by XTT reduction menadione assay; type: functional; conditions: read-out: GI
[16] = tested on: Mycobacterium bovis BCG str. ATCC 35743; assay: Antitubercular activity against dormant Mycobacterium bovis BCG ATCC 35743 assessed as growth inhibition at 3 ug/mL by NR assay; type: functional
[17] = tested on: Mycobacterium tuberculosis; assay: Antitubercular activity against dormant Mycobacterium tuberculosis H37Ra assessed as growth inhibition at 3 ug/mL by XTT reduction menadione assay; type: functional; conditions: read-out: GI
[18] = Cytotoxicity against human HCT116 cells at 10 ug/mL by MTT assay; type: cell-based, HCT-116; conditions: read-out: INH
[19] = tested on: Staphylococcus aureus; assay: Antibacterial activity against Staphylococcus aureus after 18 hrs by broth dilution method; type: functional, organism-based
[20] = tested on: Pseudomonas; assay: Antibacterial activity against Pseudomonas after 18 hrs by broth dilution method; type: functional, organism-based
[21] = tested on: Escherichia coli; assay: Antibacterial activity against Escherichia coli after 18 hrs by broth dilution method; type: functional, organism-based
[22] = tested on: Bacillus subtilis; assay: Antibacterial activity against Bacillus subtilis after 18 hrs by broth dilution method; type: functional, organism-based

SMILES	cytotoxicity at 10 ug/mL [1] [%]	cytotoxicity at 3 ug/mL [2] [%]	IC50 [3] [mg/L]	IC90 [3] [mg/L]	IC90 [4] [mg/L]	IC50 [5] [mg/L]	cytotoxicity at 10 ug/mL [6] [%]	inhibition of growth at 10 µg/mL [7] [%]	cytotoxicity at 3 ug/mL [8] [%]	cytotoxicity at 30 ug/mL [9] [%]	cytotoxicity at 30 ug/mL [10] [%]	cytotoxicity at 3 ug/mL [11] [%]	growth inhibition (GI) [12] [%]	cytotoxicity at 30 ug/mL [13] [%]	growth inhibition (GI) [14] [%]	inhibition of growth at 30 µg/mL [15] [%]	growth inhibition (GI) [16] [%]	inhibition of growth at 3 µg/mL [17] [%]	cytotoxicity at 10 ug/mL [18] [%]	also measured
Cc1ccc(N2C(=O)CSC2c2ccc([N+](=O)[O-])cc2)cc1 (stereo unspecified)	0	-16.1	> 30	> 30	> 30	> 30	38.8	-5.4	34.6	-10.3	45.6	-11.3	-6.1	-12.4	-7.1	14.4	-2	21.2	-14.6	
COc1ccc(C2SCC(=O)N2c2ccc(Cl)cc2)cc1 (stereo unspecified)	0	-2.9	> 30	> 30	> 30	> 30	0	18	0	0	38.6	-4	-0.7	12	1.6	9.5	5.3	37.6	-2.3	
NNC(=O)c1ccncc1 [ISONIAZID]				0.075 (≈ 0.547 µM)	0.045 (≈ 0.328 µM)	0.0023 (≈ 0.0168 µM)														
O=C1CSC(c2ccc(Cl)cc2)N1c1ccc(Cl)cc1 (stereo unspecified)	0	-8.1	> 30	> 30	> 30	> 30	16.6	24.1	14.5	0	14.8	0	0	15.9	-0.8	-19.8	-20.2	11.8	1.3	
O=C1CSC(c2ccc(Cl)cc2)N1c1ccc(F)cc1 (stereo unspecified)	0	-6.2	> 30	> 30	> 30	> 30	11.5	-3.2	12.4	0	26.1	0	-9.9	34.5	-1	-45.6	-2.1	8.8	0.2	
Cc1ccc(C2SCC(=O)N2c2ccc(C)cc2)cc1 (stereo unspecified)	0	9.7	> 30	> 30	> 30	> 30	16.4	-26.4	-9.2	-13.4	19.6	8.6	-1.2	45	-1.9	-27.4	-12.5	-18.5	16.7	
O=C1CSC(c2ccc(F)cc2)N1c1ccc(Cl)cc1 (stereo unspecified)	0	9.4	> 30	> 30	> 30	> 30	38.1	-14.6	32.2	4.9	43.7	-7	-3.8	50.4	-1.3	30.2	-3.2	8.8	18.6	
Cc1ccc(N2C(=O)CSC2c2ccc(Cl)cc2)cc1 (stereo unspecified)	0	-8.6	> 30	> 30	> 30	> 30	9.6	38.1	-0.9	0	11.3	1.3	29.2	28.8	5.3	5.2	-6.6	34	7.2	
NC[C@H]1O[C@H](O[C@H]2[C@H](O)[C@@H](O[C@H]3O[C@H](CO)[C@@H](O)[C@H](N)[C@H]3O)[C@H](N)C[C@@H]2N)[C@H](O)[C@@H](O)[C@@H]1O [KANAMYCIN]																				IC50 [19]: > 30 mg/L; MIC [19]: 16 mg/L (≈ 33 µM); IC50 [20]: 0.49 mg/L (≈ 1.01 µM); MIC [20]: 0.012 mg/L (≈ 0.0248 µM); IC50 [21]: 1.62 mg/L (≈ 3.34 µM); MIC [21]: 0.67 mg/L (≈ 1.38 µM); IC50 [22]: 1.35 mg/L (≈ 2.79 µM); MIC [22]: 0.25 mg/L (≈ 0.516 µM)
Cc1ccc(N2C(=O)CSC2c2ccccc2)cc1 (stereo unspecified)	0	16.1	> 30	> 30	> 30	> 30	8.4	-24.3	-40.6	-15.9	29.2	0	4.5	21.6	39.7	-0.7	61.6	-21.6	20.5	
O=C1CSC(c2ccc(O)cc2)N1c1ccc(Cl)cc1 (stereo unspecified)	0	4.3	> 30	> 30	> 30	> 30	32.2	10.3	24.9	0	43.4	0	-15.5	20.1	-2.2	16.3	6	29.8	10.4	
O=C1CSC(c2ccccc2)N1c1ccc(Br)cc1 (stereo unspecified)	0	-7.3	> 30	> 30	> 30	> 30	9.4	-27.5	-2.6	0	23.8	0	-2.7	22	-35.7	-0.7	-14	-6.9	8.2	
CO[C@H]1/C=C/O[C@@]2(C)Oc3c(C)c(O)c4c(O)c(c(/C=N/N5CCN(C)CC5)c(O)c4c3C2=O)NC(=O)/C(C)=C\C=C\[C@H](C)[C@H](O)[C@@H](C)[C@@H](O)[C@@H](C)[C@H](OC(C)=O)[C@@H]1C [RIFAMPIN]				0.043 (≈ 0.0523 µM)	0.041 (≈ 0.0498 µM)	0.0016 (≈ 0.00194 µM)														
Cc1ccc(C2SCC(=O)N2c2ccccc2)cc1 (stereo unspecified)	-12.6	-25.8	> 30	> 30	> 30	> 30	16.9	31	0	27.8	40.7	-10.3	0.2	-9.8	16.6	17.8	2	12	-11.9	
CC1(C)S[C@@H]2[C@H](NC(=O)[C@H](N)c3ccccc3)C(=O)N2[C@H]1C(=O)O [AMPICILLIN]																				IC50 [19]: 1 mg/L (≈ 2.86 µM); MIC [19]: 0.12 mg/L (≈ 0.343 µM); IC50 [20]: 4.36 mg/L (≈ 12.5 µM); MIC [20]: 2.83 mg/L (≈ 8.1 µM); IC50 [21]: 1.46 mg/L (≈ 4.18 µM); MIC [21]: 0.41 mg/L (≈ 1.17 µM); IC50 [22]: 10.3 mg/L (≈ 29.5 µM); MIC [22]: 5.89 mg/L (≈ 16.9 µM)
